One series concerns the target HCV NS3/4A protease (Hepatitis C virus genotype 1a (isolate H77) (HCV), UniProt P27958). Kind of series: Inhibition assay (enzymatic assay) of full-length NS3 protease with NS4A cofactor. The series is classed as biochemical. The method, then:
[Landro, 1997 #Biochem 36 9340-9348]. […] The solutions were stored at −20° C. between measurements.
[Liu, 1999 Analytical Biochemistry 267 331-335].

The nature of series [1]: In vivo effects of ritonavir on the oral pharmacokinetics of Compound nr. 47 in rat. The conditions noted are these: male and female Sprague-Dawley rats, single oral 10 mg/kg Compound nr. 47, boosting with 10 mg/kg ritonavir about 30 minutes before, plasma. How it is done:
Oral pharmacokinetics of Compound nr. 47 in male and female Sprague-Dawley rats after a single dose at 10 mg/kg, using a formulation in 50% PEG400/water and the influence of “boosting” with 10 mg/kg ritonavir were investigated.
Four male and four female Sprague-Dawley (SD)-rats (approx. body weight 200-250 g) were randomly divided into 2 groups of 2 males and females each (boosted and non-boosted) based on body weight. […] The animals were fasted shortly before the trial. Drinking water remained available ad libitum.
Rats from the non-boosted group received a single oral 10 mg/kg dose of Compound nr. 47, formulated as a 3 mg/ml 50% PEG400/water at pH 8. Rats from the boosted group received a single oral dose of ritonavir, about 30 minutes before single oral dosing with 10 mg/kg of Compound nr. 47. The drug formulations were administered by oral gavage.
From each rat, a 0.5 ml blood sample was collected at 0.5 h, 1 h, 2 h, 4 h and 8 h after dosing. Plasma concentrations were determined using HPLC-MS. Results are shown in the table 2 below, expressed as fold change in pharmacokinetic parameter of the boosted group as compared to the non-boosted group.

The subject of series [2] is HCV type 1b replicon in Huh-7 luc/neo (Huh-Luc) cells. Briefly: Replicon assay: inhibition of HCV RNA replication in Huh-Luc cells (luciferase). The series is classed as cell-based. The conditions noted are these: Hepatitis C virus, Huh-7, 72 h, luciferase activity, incubation of three days. The method, then:
The in vitro antiviral activity against HCV of the compounds of formula (I) was tested in a cellular HCV replicon system based on Lohmann et al. (1999) Science 285:110-113, with the further modifications described by Krieger et al. (2001) Journal of Virology 75: 4614-4624, which is further exemplified in the examples section. This model, while not a complete infection model for HCV, is widely accepted as the most robust and efficient model of autonomous HCV RNA replication currently available. […] It will be appreciated that it is important to distinguish between compounds that specifically interfere with HCV functions from those that exert cytotoxic or cytostatic effects in the HCV replicon model, and as a consequence cause a decrease in HCV RNA or linked reporter enzyme concentration. Assays are known in the field for the evaluation of cellular cytotoxicity based for example on the activity of mitochondrial enzymes using fluorogenic redox dyes such as resazurin. Furthermore, cellular counter screens exist for the evaluation of non-selective inhibition of linked reporter gene activity, such as firefly luciferase. Appropriate cell types can be equipped by stable transfection with a luciferase reporter gene whose expression is dependent on a constitutively active gene promoter, and such cells can be used as a counter-screen to eliminate non-selective inhibitors.
The compounds of formula (I) were examined for activity in the inhibition of HCV RNA replication in a cellular assay. […] The cellular assay was based on a bicistronic expression construct, as described by Lohmann et al. (1999) Science vol. 285 pp. 110-113 with modifications described by Krieger et al. (2001) Journal of Virology 75: 4614-4624, in a multi-target screening strategy. In essence, the method was as follows.
The assay utilized the stably transfected cell line Huh-7 luc/neo (hereafter referred to as Huh-Luc). This cell line harbors an RNA encoding a bicistronic expression construct comprising the wild type NS3-NS5B regions of HCV type 1b translated from an Internal Ribosome Entry Site (IRES) from encephalomyocarditis virus (EMCV), preceded by a reporter portion (FfL-luciferase), and a selectable marker portion (neo^R, neomycine phosphotransferase). The construct is bordered by 5′ and 3′ NTRs (non-translated regions) from HCV type 1b. Continued culture of the replicon cells in the presence of G418 (neo^R) is dependent on the replication of the HCV RNA. The stably transfected replicon cells that express HCV RNA, which replicates autonomously and to high levels, encoding inter alia luciferase, are used for screening the antiviral compounds.
The replicon cells were plated in 384 well plates in the presence of the test and control compounds which were added in various concentrations. Following an incubation of three days, HCV replication was measured by assaying luciferase activity (using standard luciferase assay substrates and reagents and a Perkin Elmer ViewLux™ ultraHTS microplate imager). Replicon cells in the control cultures have high luciferase expression in the absence of any inhibitor. The inhibitory activity of the compound on luciferase activity was monitored on the Huh-Luc cells, enabling a dose-response curve for each test compound.
In general terms: Replicon systems follow genome replication, usually without infectious particles.

Consider 1 compound from patent US8741926B2, “Macrocyclic inhibitors of hepatitis C virus” (Tibotec Pharmaceuticals Ltd., priority 2005, dated 2014).

As usually defined, the Ki is the dissociation constant of the complex between target and ligand, obtained from inhibition or displacement. Read a low Ki as a stronger hold on the target. The EC50 is the midpoint of the concentration-response curve. Lower therefore signals greater potency.

Sequence of HCV NS3/4A protease (P27958 1027-1657): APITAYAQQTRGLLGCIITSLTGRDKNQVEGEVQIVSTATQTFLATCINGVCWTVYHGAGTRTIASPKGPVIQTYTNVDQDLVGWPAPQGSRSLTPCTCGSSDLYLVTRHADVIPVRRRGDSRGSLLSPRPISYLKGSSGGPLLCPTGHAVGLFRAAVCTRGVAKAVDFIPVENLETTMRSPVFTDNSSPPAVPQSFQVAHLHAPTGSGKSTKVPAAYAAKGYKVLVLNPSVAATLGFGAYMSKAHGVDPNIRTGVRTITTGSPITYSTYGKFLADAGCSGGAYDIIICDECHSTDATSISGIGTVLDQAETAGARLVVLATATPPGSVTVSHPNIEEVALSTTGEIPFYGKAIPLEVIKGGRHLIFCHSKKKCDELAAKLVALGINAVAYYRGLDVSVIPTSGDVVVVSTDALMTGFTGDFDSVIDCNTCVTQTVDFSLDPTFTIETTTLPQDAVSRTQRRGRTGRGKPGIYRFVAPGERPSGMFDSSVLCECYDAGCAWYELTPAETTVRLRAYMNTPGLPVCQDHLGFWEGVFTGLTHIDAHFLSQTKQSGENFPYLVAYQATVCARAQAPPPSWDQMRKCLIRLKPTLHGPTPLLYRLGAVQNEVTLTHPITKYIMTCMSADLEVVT

Take `COc1ccc2c(O[C@@H]3C[C@H]4C(=O)N[C@]5(C(=O)NS(=O)(=O)C6CC6)C[C@H]5/C=C\CCCCN(C)C(=O)[C@@H]4C3)cc(-c3nc(C(C)C)cs3)nc2c1C` [Compound 47, N-[17-[2-(4-isopropylthiazole-2-yl)-7-methoxy-8-methylquinolin-4-yloxy]-13-methyl-2,14-dioxo-3,13-diazatricyclo[13.3.0.0^4,6]octadec-7-ene-4-carbonyl](cyclopropyl)sulfonamide]: the affinity on HCV NS3/4A protease, expressed as Ki, was 0.5 nM. In series [1], the “Cmax, fold change of the boosted group as compared to the non-boosted group” value was found to be 2.2 fold change. For the same compound, the 50% effective concentration (EC50) in series [2] was determined as 0.00618 µM.
